Measurements published in PubChem BioAssay (NCI).
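Five concentrations, 48 hours, 96-well plates. Abbreviation: GI50, concentration required for 50% inhibition of growth. TGI: concentration producing complete growth inhibition.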

Experiments:
Assay in all cases: growth of human tumour cells (NCI), 48 h
UACC-257 melanoma = tested on: UACC-257 melanoma
CAKI-1 renal = tested on: CAKI-1 renal
LOX IMVI melanoma = tested on: LOX IMVI melanoma
MCF7 breast = tested on: MCF7 breast
COLO 205 colon = tested on: COLO 205 colon
K-562 leukemia = tested on: K-562 leukemia
MALME-3M melanoma = tested on: MALME-3M melanoma
SR leukemia = tested on: SR leukemia
SN12C renal = tested on: SN12C renal
MOLT-4 leukemia = tested on: MOLT-4 leukemia

Row | Compound | TGI (UACC-257 melanoma) | TGI (CAKI-1 renal) | TGI (LOX IMVI melanoma) | TGI (MCF7 breast) | TGI (COLO 205 colon) | TGI (K-562 leukemia) | TGI (MALME-3M melanoma) | TGI (SR leukemia) | TGI (SN12C renal) | TGI (MOLT-4 leukemia) | GI50 (UACC-257 melanoma) | GI50 (CAKI-1 renal) | GI50 (LOX IMVI melanoma) | GI50 (MCF7 breast) | GI50 (COLO 205 colon) | GI50 (K-562 leukemia) | GI50 (MALME-3M melanoma) | GI50 (SR leukemia) | GI50 (SN12C renal) | GI50 (MOLT-4 leukemia)
1 | COc1cc(C2c3cc4c(cc3OC(N3CCOCC3)C2C)OCO4)cc(OC)c1OC(C)=O (stereo not given) | > 100 µM | > 100 µM | > 100 µM | > 100 µM | 52 µM | 49.2 µM | > 85.7 µM | > 72 µM | > 84.2 µM | > 100 µM | – | – | – | – | – | – | – | – | – | –
2 | COC1CCC(n2c([C@@H]3CCCC(=O)N3c3ccc(F)c(F)c3)nc3cc(-c4c(C)noc4C)ccc32)CC1 (stereo not given in full) | > 100 µM | 12.7 µM | 16.9 µM | 15.1 µM | 17.8 µM | > 100 µM | 17.7 µM | > 100 µM | 29.6 µM | 72.2 µM | 2.54 µM | 0.64 µM | 4.13 µM | 0.626 µM | 2.16 µM | 2.8 µM | 1.74 µM | 0.755 µM | 10.3 µM | 16.9 µM
3 | C=C(COC(=O)C(C)C)[C@H]1Oc2ccc(C(C)=O)cc2[C@@H]1OC(=O)C(C)C | > 100 µM | > 100 µM | > 100 µM | > 100 µM | > 100 µM | > 100 µM | > 100 µM | > 100 µM | > 100 µM | > 100 µM | – | – | – | – | – | – | – | – | – | –
4 | O=C(O)C(CO)NC(=O)C1C(C(=O)O)C(c2ccccc2[N+](=O)[O-])C=C(c2ccco2)N1c1ccncc1 (stereo not given) | 9.9 µM | 24.3 µM | 3.42 µM | 5.63 µM | 12 µM | 5.74 µM | 29.1 µM | > 100 µM | 25.4 µM | > 22.5 µM | – | – | – | – | – | – | – | – | – | –
5 | Cc1ccc(CC(=O)Nc2ccc(NC(=O)CNC(=O)/C=C/c3ccc(-c4ccccc4)cc3)cc2C(=O)c2ccccc2)cc1 | 22.7 µM | 20.4 µM | 13.4 µM | 3.69 µM | 32 µM | 10.3 µM | 12.3 µM | 4.95 µM | 9.93 µM | 15.3 µM | – | – | – | – | – | – | – | – | – | –
6 | Cc1ccnc2sc3ccccc3c(=O)c12 | > 100 µM | 61.5 µM | > 100 µM | > 100 µM | > 100 µM | > 100 µM | > 100 µM | > 100 µM | > 100 µM | 79.2 µM | – | – | – | – | – | – | – | – | – | –
7 | CC1CN=C(N(C)C(=O)Nc2ccc(Cl)c(Cl)c2)S1 (stereo not given) | > 100 µM | 61.8 µM | 91.4 µM | 59.7 µM | > 100 µM | > 100 µM | > 100 µM | > 100 µM | > 100 µM | > 100 µM | – | – | – | – | – | – | – | – | – | –
8 | Cc1nc(N)nc(N)c1N1CCN(Cc2ccccc2)CC1 | > 100 µM | > 100 µM | > 100 µM | > 100 µM | > 100 µM | > 100 µM | > 69 µM | > 100 µM | > 100 µM | > 100 µM | – | – | – | – | – | – | – | – | – | –
9 | CSc1nc(=O)c(C#N)c(-c2ccccc2)n1C1OC(COC(C)=O)C(OC(C)=O)C(OC(C)=O)C1OC(C)=O (stereo not given) | > 100 µM | > 100 µM | > 100 µM | > 100 µM | > 100 µM | > 100 µM | > 100 µM | > 100 µM | > 100 µM | > 100 µM | – | – | – | – | – | – | – | – | – | –
10 | C=CCc1cccc2cc(C(=O)Nc3nc(C45CC6CC(CC(C6)C4)C5)cs3)c(=O)oc12 | > 100 µM | 41.4 µM | 42.8 µM | > 100 µM | 58.9 µM | > 100 µM | > 100 µM | > 100 µM | > 100 µM | > 100 µM | – | – | – | – | – | – | – | – | – | –
11 | CCOC(=O)/C=C(/C(=O)OCC)n1ccc(=O)[nH]c1=O | 25.2 µM | 2.3 µM | 22.3 µM | 14.9 µM | 3.99 µM | 6.55 µM | 4.4 µM | 16.8 µM | 19.6 µM | 6.12 µM | – | – | – | – | – | – | – | – | – | –
12 | Cc1nn(-c2ccccc2)c2c1N=C(C(=O)O)CC(c1ccccc1)=N2 | > 10 µM | > 10 µM | > 10 µM | > 10 µM | > 10 µM | > 10 µM | > 10 µM | > 10 µM | > 10 µM | > 10 µM | – | – | – | – | – | – | – | – | – | –
13 | CC(=O)C(C(=O)C(C)(C)C)C(=O)C(C)(C)C | > 100 µM | > 100 µM | > 100 µM | > 100 µM | > 100 µM | > 100 µM | > 100 µM | > 100 µM | > 100 µM | > 100 µM | – | – | – | – | – | – | – | – | – | –
